Measurements published in PubChem BioAssay AID248 (DTP/NCI, 2004).
“And” between values parts separate entries of the source, which are not always exact repeats. Identical values can stand only once. Toxic doses and inconclusive results are not listed. Rule as the data show it: active = T/C of 150% or more; inactive = T/C below 125%.

Tested on: L1210 leukemia ip in BDF1 mice, survival T/C
Assay: NCI In Vivo Anticancer Drug Screen. Data for tumor model L1210 Leukemia (intraperitoneal) in B6D2F1 (BDF1) mice
Settings: higher = longer survival
Procedure, shortened: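 Value reflects the ratio of survival in compound-treated mice to survival in vehicle-treated controls, with both groups carrying the same transplanted tumor.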

Measured: T/C

COc1cccc2c1C(=O)c1c(O)c3c(c(O)c1C2=O)C[C@@](O)(C(=O)CO)C[C@@H]3OC1CC(N)C(O)C(C)O1 (some centres not stated)
inactive: endpoint: mean survival time, dose: 0.09 mg/kg/injection, schedule: Q01DX009 (ip), vehicle: saline 106 % of control | endpoint: mean survival time, dose: 0.18 mg/kg/injection, schedule: Q01DX009 (ip), vehicle: saline 107 % of control and 113 % of control | endpoint: mean survival time, dose: 0.2 mg/kg/injection, schedule: Q01DX009 (ip), vehicle: water 112 % of control | endpoint: mean survival time, dose: 0.28 mg/kg/injection, schedule: Q04DX002 (ip), vehicle: saline 110 % of control and 120 % of control | endpoint: mean survival time, dose: 0.3 mg/kg/injection, schedule: Q01DX015 (ip), vehicle: clinical formulation 116 % of control | endpoint: mean survival time, dose: 0.44 mg/kg/injection, schedule: Q01DX015 (ip), vehicle: clinical formulation 119 % of control | endpoint: mean survival time, dose: 0.5 mg/kg/injection, schedule: Q01DX003 (ip), vehicle: water 115 % of control | endpoint: mean survival time, dose: 0.5 mg/kg/injection, schedule: Q## X Z (ip), vehicle: water 113 % of control | endpoint: mean survival time, dose: 0.55 mg/kg/injection, schedule: Q04DX002 (ip), vehicle: saline 103 % of control and 108 % of control | endpoint: mean survival time, dose: 1.0 mg/kg/injection, schedule: Q01DX009 (sc), vehicle: clinical formulation 107 % of control | endpoint: mean survival time, dose: 1.0 mg/kg/injection, schedule: Q03HX024 (ip), vehicle: water 111 % of control | endpoint: mean survival time, dose: 1.0 mg/kg/injection, schedule: Q04DX004 (ip), vehicle: clinical formulation 117 % of control | endpoint: mean survival time, dose: 1.5 mg/kg/injection, schedule: Q01DX009 (sc), vehicle: clinical formulation 108 % of control | endpoint: mean survival time, dose: 2.0 mg/kg/injection, schedule: Q03HX024 (ip), vehicle: water 93 % of control | endpoint: mean survival time, dose: 2.2 mg/kg/injection, schedule: Q01DX009 (sc), vehicle: clinical formulation 113 % of control | endpoint: mean survival time, dose: 3.0 mg/kg/injection, schedule: Q01DX009 (ip), vehicle: saline 107 % of control | endpoint: mean survival time, dose: 3.3 mg/kg/injection, schedule: Q01DX009 (sc), vehicle: clinical formulation 117 % of control | endpoint: mean survival time, dose: 4.0 mg/kg/injection, schedule: Q01DX008 (ip), vehicle: saline 98 % of control | endpoint: mean survival time, dose: 4.9 mg/kg/injection, schedule: Q01DX009 (sc), vehicle: clinical formulation 110 % of control | endpoint: mean survival time, dose: 5.0 mg/kg/injection, schedule: Q01DX009 (ip), vehicle: saline 93 % of control | endpoint: mean survival time, dose: 20.0 mg/kg/injection, schedule: Q01DX001 (ip), vehicle: saline 108 % of control | endpoint: mean survival time, dose: 100.0 micrograms/kg/injection, schedule: Q03HX032 (ip), vehicle: clinical formulation 117 % of control | endpoint: mean survival time, dose: 150.0 micrograms/kg/injection, schedule: Q03HX032 (ip), vehicle: clinical formulation 120 % of control | endpoint: median survival time, dose: 0.12 mg/kg/injection, schedule: Q03HX008 (ip), vehicle: water 120 % of control | endpoint: median survival time, dose: 0.13 mg/kg/injection, schedule: Q03HX008 (ip), vehicle: water 119 % of control | endpoint: median survival time, dose: 0.23 mg/kg/injection, schedule: Q04DX003 (ip), vehicle: water 113 % of control | endpoint: median survival time, dose: 0.25 mg/kg/injection, schedule: Q01DX009 (ip), vehicle: water 115 % of control | endpoint: median survival time, dose: 0.28 mg/kg/injection, schedule: Q03HX008 (ip), vehicle: water 111 % of control | endpoint: median survival time, dose: 0.47 mg/kg/injection, schedule: Q03HX008 (ip), vehicle: water 111 % of control | endpoint: median survival time, dose: 0.5 mg/kg/injection, schedule: Q01DX001 (ip), vehicle: water 113 % of control and 116 % of control | endpoint: median survival time, dose: 0.5 mg/kg/injection, schedule: Q01DX009 (ip), vehicle: water 115 % of control and 119 % of control | endpoint: median survival time, dose: 0.5 mg/kg/injection, schedule: Q03HX024 (ip), vehicle: water 114 % of control | endpoint: median survival time, dose: 0.65 mg/kg/injection, schedule: Q01DX005 (sc), vehicle: water 110 % of control | endpoint: median survival time, dose: 0.65 mg/kg/injection, schedule: Q01DX009 (ip), vehicle: water 104 % of control | endpoint: median survival time, dose: 0.65 mg/kg/injection, schedule: Q03HX008 (sc), vehicle: water 110 % of control | endpoint: median survival time, dose: 0.75 mg/kg/injection, schedule: Q04DX003 (ip), vehicle: water 109 % of control | endpoint: median survival time, dose: 0.78 mg/kg/injection, schedule: Q03HX008 (ip), vehicle: water 105 % of control | endpoint: median survival time, dose: 1.0 mg/kg/injection, schedule: Q01DX009 (ip), vehicle: water 115 % of control | endpoint: median survival time, dose: 1.0 mg/kg/injection, schedule: Q03HX024 (ip), vehicle: water 93 % of control and 110 % of control | endpoint: median survival time, dose: 1.0 mg/kg/injection, schedule: Q04DX003 (ip), vehicle: water 119 % of control | endpoint: median survival time, dose: 1.0 mg/kg/injection, schedule: Q## X001 (ip), vehicle: saline 113 % of control | endpoint: median survival time, dose: 1.08 mg/kg/injection, schedule: Q01DX005 (sc), vehicle: water 105 % of control | endpoint: median survival time, dose: 1.08 mg/kg/injection, schedule: Q01DX009 (ip), vehicle: water 104 % of control and 113 % of control | endpoint: median survival time, dose: 1.17 mg/kg/injection, schedule: Q04DX003 (ip), vehicle: water 100 % of control | endpoint: median survival time, dose: 1.25 mg/kg/injection, schedule: Q04DX003 (ip), vehicle: water 115 % of control | endpoint: median survival time, dose: 1.5 mg/kg/injection, schedule: Q04DX003 (ip), vehicle: water 102 % of control | endpoint: median survival time, dose: 1.75 mg/kg/injection, schedule: Q04DX003 (ip), vehicle: water 100 % of control | endpoint: median survival time, dose: 1.8 mg/kg/injection, schedule: Q01DX001 (ip), vehicle: water 95 % of control and 113 % of control and 120 % of control | endpoint: median survival time, dose: 1.8 mg/kg/injection, schedule: Q01DX005 (sc), vehicle: water 110 % of control | endpoint: median survival time, dose: 1.8 mg/kg/injection, schedule: Q01DX009 (ip), vehicle: water 109 % of control and 113 % of control | endpoint: median survival time, dose: 1.8 mg/kg/injection, schedule: Q08DX002 (ip), vehicle: water 100 % of control and 118 % of control | endpoint: median survival time, dose: 2.0 mg/kg/injection, schedule: Q01DX009 (ip), vehicle: water 104 % of control | endpoint: median survival time, dose: 2.0 mg/kg/injection, schedule: Q## X001 (ip), vehicle: saline 118 % of control | endpoint: median survival time, dose: 2.6 mg/kg/injection, schedule: Q04DX003 (ip), vehicle: water 116 % of control | endpoint: median survival time, dose: 3.0 mg/kg/injection, schedule: Q01DX009 (ip), vehicle: water 109 % of control | endpoint: median survival time, dose: 3.0 mg/kg/injection, schedule: Q08DX002 (ip), vehicle: water 100 % of control and 118 % of control | endpoint: median survival time, dose: 3.0 mg/kg/injection, schedule: Q12DX002 (ip), vehicle: water 117 % of control | endpoint: median survival time, dose: 3.9 mg/kg/injection, schedule: Q01DX001 (ip), vehicle: water 105 % of control | endpoint: median survival time, dose: 5.0 mg/kg/injection, schedule: Q12DX002 (ip), vehicle: water 119 % of control | endpoint: median survival time, dose: 5.9 mg/kg/injection, schedule: Q04DX003 (ip), vehicle: water 111 % of control | endpoint: median survival time, dose: 6.0 mg/kg/injection, schedule: Q01DX001 (ip), vehicle: water 115 % of control | endpoint: median survival time, dose: 6.0 mg/kg/injection, schedule: Q04DX003 (ip), vehicle: water 103 % of control | endpoint: median survival time, dose: 8.0 mg/kg/injection, schedule: Q04DX003 (ip), vehicle: water 94 % of control and 97 % of control (2×) | endpoint: median survival time, dose: 8.3 mg/kg/injection, schedule: Q04DX003 (ip), vehicle: water 116 % of control | endpoint: median survival time, dose: 8.4 mg/kg/injection, schedule: Q08DX002 (ip), vehicle: water 104 % of control and 118 % of control | endpoint: median survival time, dose: 8.9 mg/kg/injection, schedule: Q04DX003 (ip), vehicle: water 100 % of control | endpoint: median survival time, dose: 10.0 mg/kg/injection, schedule: Q04DX003 (ip), vehicle: water 94 % of control and 100 % of control and 103 % of control | endpoint: median survival time, dose: 10.0 mg/kg/injection, schedule: Q08DX002 (ip), vehicle: water 111 % of control | endpoint: median survival time, dose: 12.0 mg/kg/injection, schedule: Q01DX001 (ip), vehicle: water 120 % of control | endpoint: median survival time, dose: 13.3 mg/kg/injection, schedule: Q01DX001 (ip), vehicle: water 105 % of control | endpoint: median survival time, dose: 14.0 mg/kg/injection, schedule: Q08DX002 (ip), vehicle: water 95 % of control and 104 % of control | endpoint: median survival time, dose: 24.0 mg/kg/injection, schedule: Q01DX001 (ip), vehicle: water 114 % of control

O=C(O)CC(C(=O)O)c1ccccc1O (configuration not stated)
inactive: endpoint: mean survival time, dose: 25.0 mg/kg/injection, schedule: Q04DX003 (ip), vehicle: Klucel (hydroxypropylcellulose) (HPC) 95 % of control | endpoint: mean survival time, dose: 50.0 mg/kg/injection, schedule: Q01DX001 (ip), vehicle: saline 100 % of control | endpoint: mean survival time, dose: 50.0 mg/kg/injection, schedule: Q04DX003 (ip), vehicle: Klucel (hydroxypropylcellulose) (HPC) 93 % of control | endpoint: mean survival time, dose: 100.0 mg/kg/injection, schedule: Q01DX001 (ip), vehicle: saline 96 % of control | endpoint: mean survival time, dose: 200.0 mg/kg/injection, schedule: Q01DX001 (ip), vehicle: saline 90 % of control
